Experimental data as given in PubChem BioAssay AID1033 (Sanford-Burnham Center for Chemical Genomics, 2008).
Active and inactive are the calls of the source. The rule behind the calls is not given here.

biological target: Chaperone protein DnaK (Escherichia coli (strain K12)) (UniProt P0A6Y8); assay: E. coli DnaK SBD ligand binding – biophysical, NMR, chaperone (AID 1033); conditions: Purified DnaK SBD
Sequence (P0A6Y8 whole entry, looked up): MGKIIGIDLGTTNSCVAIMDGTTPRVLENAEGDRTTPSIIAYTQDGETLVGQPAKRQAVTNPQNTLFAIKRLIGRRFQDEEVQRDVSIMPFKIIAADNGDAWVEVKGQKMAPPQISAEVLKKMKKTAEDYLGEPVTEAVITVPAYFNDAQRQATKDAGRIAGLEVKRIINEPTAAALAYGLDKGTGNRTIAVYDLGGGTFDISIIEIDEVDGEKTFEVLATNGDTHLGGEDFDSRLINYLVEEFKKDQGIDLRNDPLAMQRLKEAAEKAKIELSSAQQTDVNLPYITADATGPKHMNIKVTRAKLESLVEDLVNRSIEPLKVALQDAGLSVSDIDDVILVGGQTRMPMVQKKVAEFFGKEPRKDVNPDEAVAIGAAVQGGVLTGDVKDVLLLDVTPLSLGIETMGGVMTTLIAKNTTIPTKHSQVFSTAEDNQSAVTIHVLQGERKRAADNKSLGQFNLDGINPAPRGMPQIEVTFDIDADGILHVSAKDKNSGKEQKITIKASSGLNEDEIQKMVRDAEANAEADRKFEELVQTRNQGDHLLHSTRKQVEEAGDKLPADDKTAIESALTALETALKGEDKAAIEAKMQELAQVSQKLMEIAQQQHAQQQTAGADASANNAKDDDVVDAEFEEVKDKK

Row | SMILES | Kd
1 | Cc1cc(C(=O)N2CCN(S(C)(=O)=O)CC2)cs1 | > 4 mM (inactive)
2 | CCOC(=O)c1c(C)nc2ccccn12 | > 4 mM (inactive)
3 | CN1CCN(c2ccc(CN)cc2)CC1 | > 4 mM (inactive)
4 | CN1C(CC(=O)c2ccccc2)CCCC1CC(O)c1ccccc1 (centres undefined) | > 4 mM (inactive)
5 | Cc1ccc(O)c(NC(=O)c2ccco2)c1 | > 4 mM (inactive)
6 | CC(=O)NC(=S)Nc1ccc(C(C)=O)cc1 | > 4 mM (inactive)
7 | COC(=O)c1c[nH]c2ccccc12 | > 4 mM (inactive)
8 | O=C(Nn1c(=S)[nH]c2ccccc2c1=O)c1ccncc1 | > 4 mM (inactive)
9 | CC1CN=C(Nc2ccccc2)S1 (centres undefined) | > 4 mM (inactive)
10 | CCOC(=O)CSCC(=O)Nc1nccs1 | > 4 mM (inactive)
11 | Cn1ncc(C(=O)NC2CCCCC2)c1Cl | > 4 mM (inactive)
12 | c1ccc(-c2noc(-c3ccco3)n2)nc1 | > 4 mM (inactive)
13 | Cn1c(=O)c2c(ncn2C)n(C)c1=O | > 4 mM (inactive)
14 | O=S1(=O)CCC(Nc2ccccc2)C1 (centres undefined) | > 4 mM (inactive)
15 | Cc1ccc(SCC(=O)N2CCOCC2)cc1 | > 4 mM (inactive)
16 | CC(C)(C)NC(=O)N1CCC(C(=O)O)CC1 | > 4 mM (inactive)
17 | CC[C@H](CCC(C)[C@H]1CCC2C3CCC4C[C@@H](O)CC[C@]4(C)C3CC[C@@]21C)C(C)C (some centres undefined) | > 4 mM (inactive)
18 | CN1CCn2c1nc(N1CCCCC1)nc2=O | > 4 mM (inactive)
19 | COc1ccc(-c2cc(=O)c3c(O)cc(O[C@@H]4O[C@H](CO[C@H]5O[C@H](C)[C@@H](O)[C@H](O)[C@@H]5O)[C@@H](O)[C@H](O)[C@H]4O)cc3o2)cc1O | > 4 mM (inactive)
20 | Cc1cc(C(=O)NCc2ccco2)cs1 | > 4 mM (inactive)

Row | SMILES | Kd
21 | Clc1ccc(SCCn2cncn2)cc1 | > 4 mM (inactive)
22 | S=c1[nH]c2cccnc2[nH]1 | > 4 mM (inactive)
23 | Oc1ccc([C@H]2Oc3cc(O)cc(O)c3C[C@H]2O)cc1 | > 4 mM (inactive)
24 | NC(=O)c1cc(Cl)c(C(N)=O)cc1Cl | > 4 mM (inactive)
25 | Nc1csc(C(=O)O)c1 | > 4 mM (inactive)
26 | Oc1ccc(-n2ccnc2)cc1 | > 4 mM (inactive)
27 | Cn1c(C(=O)O)ccc1S(N)(=O)=O | > 4 mM (inactive)
28 | O=c1c(Cl)c(NCCO)ncn1-c1ccccc1 | > 4 mM (inactive)
29 | COc1ccccc1NC(=O)/C=N/O | > 4 mM (inactive)
30 | CN1CCCCC1c1ccc(-c2cccnc2)nc1 (centres undefined) | > 4 mM (inactive)
31 | CCc1ccccc1NC(=O)c1ccoc1C | > 4 mM (inactive)
32 | CC(=O)c1c(O)cc(C)n(Cc2ccccc2)c1=O | > 4 mM (inactive)
33 | C=C[C@@]1(C)CC(=O)[C@@]2(O)[C@](C)(O1)[C@@H](OC(C)=O)[C@@H](O)C1C(C)(C)CC[C@H](O)[C@@]12C (some centres undefined) | > 4 mM (inactive)
34 | CNC(=S)Nc1ccc2c(c1)OCO2 | > 4 mM (inactive)
35 | Cc1nnc2sc(-c3ccco3)nn12 | > 4 mM (inactive)
36 | COc1ccc(-c2coc3cc(O)ccc3c2=O)c(O)c1O | > 4 mM (inactive)
37 | C=C1CCC(C2CC(=O)OC2=O)C(=O)CCC2C1CC2(C)C (centres undefined) | > 4 mM (inactive)
38 | Nc1ncnc(NC2CCS(=O)(=O)C2)c1[N+](=O)[O-] (centres undefined) | > 4 mM (inactive)
39 | CCOC(=O)c1sc(SC)c2c1CCCC2O (centres undefined) | > 4 mM (inactive)
40 | COc1c2ccoc2nc2c(OC)c(OCC(O)C(C)(C)O)ccc12 (centres undefined) | > 4 mM (inactive)

Row | SMILES | Kd
41 | c1ccc(-n2nnnc2Oc2cccc3cccnc23)cc1 | > 4 mM (inactive)
42 | Cn1c(=O)n(C)c2nc([N+](=O)[O-])c(Cl)cc21 | > 4 mM (inactive)
43 | O=C(O)Cc1nc(-c2ccncc2)n[nH]1 | > 4 mM (inactive)
44 | FC(F)(F)c1nnc2ccc(N3CCOCC3)nn12 | > 4 mM (inactive)
45 | O=C(Nc1ccon1)c1ccc2c(c1)OCO2 | > 4 mM (inactive)
46 | Cc1cc(C)c2nncn2n1 | > 4 mM (inactive)
47 | CC1(C)C(=O)C=C[C@@]2(C)C1C[C@@H](O)[C@]1(C)C2CC[C@@]2(C)[C@H](c3ccoc3)OC(=O)[C@H]3O[C@]321 (some centres undefined) | > 4 mM (inactive)
48 | Cc1cc(=O)[nH]c(N2CCCCC2)n1 | > 4 mM (inactive)
49 | CC(=O)c1cccc(NC(=O)NN2CCOCC2)c1 | > 4 mM (inactive)
50 | COc1cc2ccc(=O)oc2c2ccoc12 | > 4 mM (inactive)
51 | O=C(N1CCOCC1)N1CCN(c2ccccn2)CC1 | > 4 mM (inactive)
52 | Cc1cc(C)n(-c2ccc(N)cc2)n1 | > 4 mM (inactive)
53 | COc1ccc(-c2cc3nc4n(c(=O)c3s2)CCC4)cc1 | > 4 mM (inactive)
54 | O=C1NC(=O)C(Cc2cccs2)C(=O)N1 | > 4 mM (inactive)
55 | COC(=O)c1ccc2nsnc2c1 | > 4 mM (inactive)
56 | CCOC(=O)C1CCN(c2ncnc3nc[nH]c23)CC1 | > 4 mM (inactive)
57 | O=C(O)Cc1csc(-c2ccccc2)n1 | > 4 mM (inactive)
58 | O=C1CCCc2c(O)cccc21 | > 4 mM (inactive)
59 | COc1ccc2c(c1)OC/C(=C/c1ccc(O)c(O)c1)C2=O | > 4 mM (inactive)
